Test in all cases: Kinase selectivity, DiscoverX scanMAX Kinase assay panel (% control)
What all share (type): binding

The target of assay [1] is T1, kinases of the scanMAX Kinase assay panel (Homo sapiens, UniProt Q04771).
T1 construct: purchased DiscoverX Co. (contract measurement) scanMAX Kinase assay panel
T1 sequence (Q04771 21-509): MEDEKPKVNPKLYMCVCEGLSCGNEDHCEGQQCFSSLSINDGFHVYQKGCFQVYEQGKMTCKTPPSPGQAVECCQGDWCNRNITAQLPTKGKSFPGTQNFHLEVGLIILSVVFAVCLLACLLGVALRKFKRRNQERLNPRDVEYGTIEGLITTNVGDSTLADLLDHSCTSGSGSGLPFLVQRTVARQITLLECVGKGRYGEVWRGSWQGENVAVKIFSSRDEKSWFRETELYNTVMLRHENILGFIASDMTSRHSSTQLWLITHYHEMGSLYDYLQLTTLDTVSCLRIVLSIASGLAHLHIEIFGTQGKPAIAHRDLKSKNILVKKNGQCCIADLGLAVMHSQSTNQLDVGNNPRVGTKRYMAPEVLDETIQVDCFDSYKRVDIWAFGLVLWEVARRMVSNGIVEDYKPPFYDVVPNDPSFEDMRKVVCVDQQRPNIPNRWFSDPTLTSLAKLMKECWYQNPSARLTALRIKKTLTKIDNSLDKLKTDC
To be noted: ACVR1; 1 uM. The gist of the method: (§1)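 Binding-panel profiling at one concentration, 1 uM in DMSO; values are % of DMSO control after subtracting the positive-control floor. Less than 35% means activity on that kinase.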

The target in assay [2] is T2, kinases of the scanMAX Kinase assay panel (Homo sapiens, UniProt P08581, M1250T).
T2 construct: purchased DiscoverX Co. (contract measurement) scanMAX Kinase assay panel
T2 sequence (P08581 25-1390 M1250T): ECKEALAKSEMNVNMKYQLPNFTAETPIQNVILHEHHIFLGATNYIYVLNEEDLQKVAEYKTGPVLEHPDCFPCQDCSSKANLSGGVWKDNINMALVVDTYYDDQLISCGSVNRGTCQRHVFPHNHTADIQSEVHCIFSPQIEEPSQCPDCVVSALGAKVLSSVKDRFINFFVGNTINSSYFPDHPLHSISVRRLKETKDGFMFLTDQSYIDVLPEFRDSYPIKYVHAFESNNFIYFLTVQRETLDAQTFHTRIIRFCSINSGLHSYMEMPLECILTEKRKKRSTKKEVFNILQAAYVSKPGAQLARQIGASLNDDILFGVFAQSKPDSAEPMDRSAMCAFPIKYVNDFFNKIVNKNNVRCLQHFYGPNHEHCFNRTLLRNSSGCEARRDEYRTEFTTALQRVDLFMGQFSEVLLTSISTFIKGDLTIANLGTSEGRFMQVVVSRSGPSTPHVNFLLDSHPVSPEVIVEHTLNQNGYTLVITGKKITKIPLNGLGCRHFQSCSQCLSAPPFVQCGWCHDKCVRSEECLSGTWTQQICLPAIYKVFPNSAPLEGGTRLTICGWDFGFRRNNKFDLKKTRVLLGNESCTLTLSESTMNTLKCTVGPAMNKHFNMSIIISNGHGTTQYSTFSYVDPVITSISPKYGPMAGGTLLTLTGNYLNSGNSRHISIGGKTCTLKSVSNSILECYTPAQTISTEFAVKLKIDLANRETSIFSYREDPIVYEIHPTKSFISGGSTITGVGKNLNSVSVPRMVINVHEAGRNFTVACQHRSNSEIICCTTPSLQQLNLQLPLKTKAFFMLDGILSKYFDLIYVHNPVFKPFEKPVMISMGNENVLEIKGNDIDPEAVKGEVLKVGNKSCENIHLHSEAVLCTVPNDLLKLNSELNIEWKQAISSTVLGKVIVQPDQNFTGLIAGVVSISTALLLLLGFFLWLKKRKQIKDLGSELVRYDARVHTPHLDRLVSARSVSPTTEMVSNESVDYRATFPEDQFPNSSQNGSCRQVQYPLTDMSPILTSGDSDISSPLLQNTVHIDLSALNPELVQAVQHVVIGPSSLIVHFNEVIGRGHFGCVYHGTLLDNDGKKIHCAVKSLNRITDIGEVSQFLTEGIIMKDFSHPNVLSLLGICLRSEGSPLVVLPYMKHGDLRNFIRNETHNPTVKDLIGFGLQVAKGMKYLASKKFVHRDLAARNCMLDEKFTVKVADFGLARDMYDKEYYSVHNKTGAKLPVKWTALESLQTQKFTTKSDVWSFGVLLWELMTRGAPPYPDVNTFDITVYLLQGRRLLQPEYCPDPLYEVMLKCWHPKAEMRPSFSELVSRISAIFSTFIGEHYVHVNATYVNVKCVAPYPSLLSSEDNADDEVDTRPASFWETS
The conditions noted are these: MET(M1250T); 1 uM. The method, boiled down:
as §1

For assay [3], the target named is T3, kinases of the scanMAX Kinase assay panel (Homo sapiens, UniProt P36888, D835H).
T3 construct: purchased DiscoverX Co. (contract measurement) scanMAX Kinase assay panel
T3 sequence (P36888 27-993 D835H): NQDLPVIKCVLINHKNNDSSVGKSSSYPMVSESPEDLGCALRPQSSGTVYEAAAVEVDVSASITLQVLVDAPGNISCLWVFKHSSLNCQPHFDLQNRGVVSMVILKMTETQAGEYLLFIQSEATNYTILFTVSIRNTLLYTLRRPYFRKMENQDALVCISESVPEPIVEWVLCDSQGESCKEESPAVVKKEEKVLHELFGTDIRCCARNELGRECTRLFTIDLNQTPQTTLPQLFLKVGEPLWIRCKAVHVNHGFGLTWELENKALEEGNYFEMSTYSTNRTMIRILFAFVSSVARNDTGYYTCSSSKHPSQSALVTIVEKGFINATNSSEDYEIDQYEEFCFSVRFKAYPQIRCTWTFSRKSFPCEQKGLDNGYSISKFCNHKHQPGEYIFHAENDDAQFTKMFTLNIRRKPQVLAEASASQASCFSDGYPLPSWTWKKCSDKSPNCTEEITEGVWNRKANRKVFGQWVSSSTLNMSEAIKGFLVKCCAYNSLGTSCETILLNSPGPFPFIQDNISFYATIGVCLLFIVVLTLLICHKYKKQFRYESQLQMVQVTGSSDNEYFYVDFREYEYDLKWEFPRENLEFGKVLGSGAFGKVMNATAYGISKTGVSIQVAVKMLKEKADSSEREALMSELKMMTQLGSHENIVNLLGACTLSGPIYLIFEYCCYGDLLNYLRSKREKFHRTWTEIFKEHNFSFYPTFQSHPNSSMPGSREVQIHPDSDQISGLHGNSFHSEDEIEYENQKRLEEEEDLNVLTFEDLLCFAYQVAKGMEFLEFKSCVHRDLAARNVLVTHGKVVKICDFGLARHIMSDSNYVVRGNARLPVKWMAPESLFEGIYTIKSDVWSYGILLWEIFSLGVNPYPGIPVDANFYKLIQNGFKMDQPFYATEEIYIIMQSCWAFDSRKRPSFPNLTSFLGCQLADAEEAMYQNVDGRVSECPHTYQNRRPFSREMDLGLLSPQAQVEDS
To be noted: FLT3(D835H); 1 uM. The method, boiled down: as §1

Assay [4] addresses T4, kinases of the scanMAX Kinase assay panel (Homo sapiens, UniProt Q16584).
T4 construct: purchased DiscoverX Co. (contract measurement) scanMAX Kinase assay panel
To be noted: MLK3; 1 uM. The gist of the method: as §1

For assay [5], the target named is T5, kinases of the scanMAX Kinase assay panel (Homo sapiens, UniProt P45984).
T5 construct: purchased DiscoverX Co. (contract measurement) scanMAX Kinase assay panel
T5 sequence (P45984 whole entry): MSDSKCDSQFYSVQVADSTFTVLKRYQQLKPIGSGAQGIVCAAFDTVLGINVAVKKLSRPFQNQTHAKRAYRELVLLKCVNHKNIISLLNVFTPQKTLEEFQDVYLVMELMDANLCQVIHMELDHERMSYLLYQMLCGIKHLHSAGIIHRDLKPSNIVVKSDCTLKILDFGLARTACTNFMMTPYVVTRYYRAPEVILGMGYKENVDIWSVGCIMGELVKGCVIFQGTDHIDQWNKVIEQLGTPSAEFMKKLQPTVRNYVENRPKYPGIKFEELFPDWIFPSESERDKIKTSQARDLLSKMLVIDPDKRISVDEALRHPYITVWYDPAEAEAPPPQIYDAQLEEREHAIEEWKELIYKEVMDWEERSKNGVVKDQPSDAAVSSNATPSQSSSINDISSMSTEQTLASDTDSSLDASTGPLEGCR
The conditions noted are these: JNK2; 1 uM. The method, boiled down:
as §1

The target in assay [6] is T6, kinases of the scanMAX Kinase assay panel (Homo sapiens, UniProt P49336).
T6 construct: purchased DiscoverX Co. (contract measurement) scanMAX Kinase assay panel
T6 sequence (P49336 whole entry): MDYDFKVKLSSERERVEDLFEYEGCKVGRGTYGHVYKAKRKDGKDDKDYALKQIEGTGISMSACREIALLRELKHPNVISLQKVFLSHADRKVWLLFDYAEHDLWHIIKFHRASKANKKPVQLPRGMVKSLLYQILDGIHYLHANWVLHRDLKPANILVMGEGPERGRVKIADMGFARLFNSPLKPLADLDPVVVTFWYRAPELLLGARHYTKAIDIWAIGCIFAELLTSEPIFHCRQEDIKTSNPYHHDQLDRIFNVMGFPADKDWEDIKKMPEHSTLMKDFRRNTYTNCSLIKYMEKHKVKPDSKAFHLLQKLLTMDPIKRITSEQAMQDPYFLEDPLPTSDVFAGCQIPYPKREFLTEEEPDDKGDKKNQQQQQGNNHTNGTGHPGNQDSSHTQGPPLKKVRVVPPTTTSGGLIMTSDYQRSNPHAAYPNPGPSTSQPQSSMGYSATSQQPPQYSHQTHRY
The conditions noted are these: CDK8; 1 uM. The method, boiled down:
as §1

The target of assay [7] is T7, kinases of the scanMAX Kinase assay panel (Homo sapiens, UniProt P22694).
T7 construct: purchased DiscoverX Co. (contract measurement) scanMAX Kinase assay panel
The conditions noted are these: PKAC-beta; 1 uM. The gist of the method:
as §1

The structures appear in SMILES notation.

T4 sequence (Q16584 whole entry): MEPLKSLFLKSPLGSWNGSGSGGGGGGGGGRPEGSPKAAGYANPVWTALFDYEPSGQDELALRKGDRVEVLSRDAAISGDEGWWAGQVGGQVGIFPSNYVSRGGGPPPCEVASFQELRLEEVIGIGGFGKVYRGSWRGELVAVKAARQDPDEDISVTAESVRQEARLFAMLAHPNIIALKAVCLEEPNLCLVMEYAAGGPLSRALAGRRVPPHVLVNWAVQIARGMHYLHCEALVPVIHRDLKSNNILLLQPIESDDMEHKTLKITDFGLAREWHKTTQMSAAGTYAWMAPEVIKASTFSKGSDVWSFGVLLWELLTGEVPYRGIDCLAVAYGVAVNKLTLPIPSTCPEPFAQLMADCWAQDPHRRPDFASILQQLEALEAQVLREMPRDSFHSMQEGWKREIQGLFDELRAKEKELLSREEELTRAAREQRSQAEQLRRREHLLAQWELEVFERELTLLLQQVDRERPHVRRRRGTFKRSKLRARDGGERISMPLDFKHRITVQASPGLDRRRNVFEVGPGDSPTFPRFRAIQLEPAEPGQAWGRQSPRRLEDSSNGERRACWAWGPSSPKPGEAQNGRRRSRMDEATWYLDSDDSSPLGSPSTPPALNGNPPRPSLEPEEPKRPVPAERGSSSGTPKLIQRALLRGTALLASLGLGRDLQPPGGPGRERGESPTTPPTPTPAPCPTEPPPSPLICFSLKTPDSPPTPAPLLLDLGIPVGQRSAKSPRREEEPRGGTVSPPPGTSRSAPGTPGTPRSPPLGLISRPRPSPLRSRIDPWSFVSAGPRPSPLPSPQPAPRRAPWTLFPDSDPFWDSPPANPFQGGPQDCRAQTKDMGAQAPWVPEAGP

In the case of `CNc1nc(Nc2ccc(C(=O)N3CCOCC3)cc2OC)nc2[nH]cc(C#N)c12` [Example 1, 2-((2-methoxy-4-(morpholine-4-carbonyl)phenyl)amino)-4-(methylamino)-7H-pyrrolo[2,3-d]pyrimidine-5-carbonitrile], the remaining binding at 1 µM stood at 97% in assay [1]; 100% in assay [2]; 92% in assay [3]; 78% in assay [4]; 0.1% in assay [5]; 100% in assay [6]. In assay [7], this molecule had a remaining binding at 1 µM of 89%.

For `CC1(Nc2nc(Nc3cnn([C@H]4CCN(C5COC5)C[C@@H]4F)c3Cl)nc3[nH]cc(C#N)c23)CC1` [Example 52, 2-((5-chloro-1-((3S,4S)-3-fluoro-1-(oxetane-3-yl)piperidine-4-yl)-1H-pyrazole-4-yl)amino)((1-methylcyclopropyl)amino)-7H-pyrrolo[2,3-d]pyrimidine-5-carbonitrile], the remaining binding at 1 µM is 73% in assay [1]; 28% in assay [2]; 0.1% in assay [3]; 3.1% in assay [4]; 0% in assay [5]; 76% in assay [6]. In assay [7], the remaining binding at 1 µM was 95%.

On to `CCNc1nc(Nc2ccc(C(=O)N3CCC(N4CCOCC4)CC3)cc2OC)nc2[nH]cc(C(F)(F)F)c12` [Example 104, (4-((4-(ethylamino)-5-(trifluoromethyl)-7H-pyrrolo[2,3-d]pyrimidine-2-yl)amino)-3-methoxyphenyl)(4-morpholinopiperidine-1-yl)methanone], for which the remaining binding at 1 µM in assay [1] amounted to 100%; in assay [2], 100%; in assay [3], 21%; in assay [4] it was 86%; in assay [5] it was 23%; in assay [6], 86%. The remaining binding at 1 µM in assay [7] worked out at 100%.
